Measurements: patent US20240217952A1, “TREATMENT OF GRAFT-VERSUS-HOST DISEASE WITH INHIBITORS OF BET FAMILY BDII BROMODOMAIN” (POSEIDON INNOVATION 1, INC., priority 2022, published 2024)

Assays:
acute GVHD = conditions: oral gavage three times weekly, versus vehicle; FIG. 4; cited from earlier work
[1] = tested on: Graft vs. Host Disease (GvHD); assay: GvHD in irradiated female BALB/c mice engrafted with WBCs from female C57BL/6 mice; format: in vivo, mouse
[2] = tested on: Graft vs. Host Disease (GvHD); assay: GvHD, combination with adoptive transfer of expanded Tregs; format: in vivo, mouse; conditions: in combination with adoptive transfer of expanded Tregs; e.g. 3 mg/kg
From the text: It has been shown that BET inhibitors can be combined with Treg expansion therapy for treatment of diseases involving inflammatory response. Lethally irradiated (8.5 Gy) BALB/c mice received 5.5×10^6 TCD B6-CD45.1 BM cells and spleen cells from expanded (TrED) or unexpanded (TrUD) B6-FoxP3RFP donor mice adjusted to contain either […] or 1×10^6 total T cells (Copsel et al. 2019).

[3] = tested on: Graft vs. Host Disease (GvHD); assay: GvHD, combination with CTLA4-Ig/Abatacept; format: in vivo, mouse; conditions: in combination with CTLA4-Ig; e.g. 3 mg/kg
From the text: It has been shown that in vivo infusion of recombinant, soluble CTLA4 fused with Ig heavy chains, as a surrogate ligand used to block CD28/CTLA4 T-cell costimulation, could prevent efficient T-cell activation and thereby reduce graft-versus-host disease (GVHD). Lethally irradiated B10.BR recipients of major histocompatibility complex disparate C57BL/6 donor grafts received intraperitoneal injections CTLA4-Ig in various doses and schedules beginning on day −1 or day 0 of bone marrow transplantation (BMT) (see Blazer et al. 1994).

cGVHD = cGVHD models (LP/J→C57BL/6 sclerodermatous; C57BL/6→B10.BR); format: in vivo, mouse; conditions: e.g. 3 mg/kg
Protocol: Compound I-2 is dosed at various doses, e.g., 3 mg/kg, and decreases incidence and/or […] onset of Graft vs. Host Disease (GvHD) in the LP/J-C57BL/6 model of sclerodermatous cGVHD and/or the C57BL/6→B10.BR cGVHD model that develops multiorgan system disease including bronchiolar obliterans (BO).

GVHD = conditions: allogeneic animals compared with allogeneic control recipients; FIG. 3; cited from earlier work
[4] = tested on: MCP-1 secretion from LPS-stimulated human PBMCs; assay: PBMC MCP-1 HTRF Assay; format: cell-based; conditions: FIG. 2
Protocol: The cryopreserved PBMC cells were thawed in a 37° C. water bath immediately after taking out from liquid nitrogen storage. A sterile pipette was used to transfer the content to sterile […] centrifuge tube containing […] of complete growth medium (Gibico 1640) and centrifuge at 300×g for 10 min. Supernatant was discarded, and cell pellet was resuspended in 10 mL of complete growth media in a sterile 15 mL tube. The cells were rested for 1 h at 37° C. (1×10^6 cells/mL). The cells were spinned down at 300×g for 10 minutes after 1 h. Supernatant was discard, and cell pellet was resuspended in complete growth medium, the cells number and viability were measured by AO/PI staining. In a 384-well white plate, PBMCs at 25k cells/well (15 μl per well) were seeded with Gibico 1640 medium. The compound stock was serial diluted into 10 mM concentrations by 3-fold dilution. […]
For MCP-1 HTRF, 2.5 μl/well MCP-1 donor antibody and […] MCP-1 acceptor antibody were added into 384 well plate, following by centrifuging at 190×g for 1 min and incubating at room temperature for 2 h. The plate was read on the Envision.
The cryopreserved PBMC cells were thawed in a 37° C. water bath immediately after taking out from liquid nitrogen storage. […] Supernatant was discard, and cell pellet was resuspended in complete growth medium, the cells number and viability were measured by AO/PI staining. […]

[5] = tested on: IL-17A, IL-17F and IL-21 T-cell dependent cytokine secretion; assay: Th17 Panel in Human PBMCs (anti-CD3 stimulation, Luminex); format: cell-based; conditions: anti-CD3 coated plates, 48 hours post stimulation, supernatant, FIG. 1
Protocol: High binding plates were coated with anti-CD3 (Clone UCHT-1, 0.2 ug/well) or its isotype control mIgG1 (0.2 ug/well) and incubated overnight at 4° C. Cryopreserved human PBMCs were seeded into U-bottom 96-well plates (2.4×10^5 cells/well) with 228 ul per well of culture medium (RPMI 1640, 10% HI-FBS, 1% P/S, 2 mM L-glutamine). Cells were incubated at 37° C., 5% CO2 for 1 hour prior to the addition of test compounds. Test compounds were solubilized in DMSO and further diluted to 20× with cell culture medium. Test compounds were added to the PBMCs in volumes of 12 ul in triplicate and incubated at 1 hour at 37° C., 5% CO2.
After the 1 hour incubation, 200 ul of cells ([…]) treated with test compounds or controls were transferred to the prepared anti-CD3 coated plates and incubated at 48 hours at 37° C., 5% CO2. Consequently, the final concentrations of assay controls were 1 ug/mL anti-CD3 (agonist) or 1 ug/mL mIgG1 isotype control, and 0.1% DMSO (vehicle control). At the end of the incubation period, plates were centrifuged at 200×g for 10 minutes. Cell culture supernatants were collected and stored at −80° C. until needed for analysis. Cytokine levels in each sample were determine using Luminex methodology per the manufacturer's protocol using the Human Th17 Magnetic Bead Panel from Milipore Sigma (HTH17MAG-14K).
Human PBMCs were treated with compound I-1 (Example 1) or vehicle control and then subjected to T cell activation mediated by anti-CD3 coated plates. 48 hours-post stimulation, IL-17A, IL-17F and IL-21 supernatant levels were quantified.

[6] = tested on: imiquimod-induced psoriasis; assay: IMQ induced psoriasis mouse model; format: in vivo
Protocol: Except for the control group, all other groups received a daily topical dose of 60 mg of 5% commercially available IMQ cream on the shaved back for 7 consecutive days. The same amount of Vaseline was applied to the same areas of the animals in the negative control group.
Vehicle and DF-6129 were dosed daily (po) for 8 days, from Day −1 to Day 7. Dosing time: 1 hour prior to IMQ application.
The Psoriasis Area and Severity Index (PASI) scoring system was used to evaluate the severity of skin inflammation of the mouse model. Erythema, scaling, and skin thickness was scored independently from 0-4 as (daily scoring) as below:
Animals were euthanized 4 h post last dosing on day 7 (3 h after applying with imiquimod cream). Whole Blood was collected via cardiac puncture from all group animals. Serum samples were separated by centrifugation at 4° C. at 8000 g for 5 minutes, total 70 samples. All serum samples were stored at −80° C. for IL-17 analysis.
Animals were euthanized 4 h post last dosing on day 7 (3 h after applying with imiquimod cream) and back skin was be collected. The skin tissues were divided into two parts. One half was flash frozen and stored at −80° C. for PCR analysis (IL-17A, IL-17F, IL-22 and IL-23), the other half was fixed in 10% formalin for HE staining and scoring.
All statistical analysis were conducted, and the level of significance was set at P<0.05. The group means and standard deviation were calculated for all measurement parameters as study designed. One-way ANOVA comparisons among the groups was performed with software SPSS 16.0.

## Cc1noc(C)c1-c1cnc2c(-c3ccc(C(=O)O)cc3)cn([C@@H](C)c3ccccn3)c2c1 [PLX51107]
Acute GVHD
  survival: significantly improved

## Cc1cc(-c2ccc(-n3ccn(C)c3=O)c(Cl)c2)c(O)c(-c2cccc(N3CCN(C(C)(C)C)CC3)c2)n1 [Compound I-2, 1-(4-(2-(3-(4-(tert-butyl)piperazin-1-yl)phenyl)-3-hydroxy-6-methylpyridin-4-yl)-2-chlorophenyl)-3-methyl-1,3-dihydro-2H-imidazol-2-one]
[1]; in combination with Ruxolitinib, compared to Ruxolitinib treatment alone, e.g. 3 mg/kg
  incidence and/or onset of GvHD: decreases incidence and/or delays of onset
[1]; monotherapy, various doses e.g. 3 mg/kg
  incidence and/or onset of GvHD: decreases incidence and/or delays onset
[2]
  incidence and/or onset of GvHD: decreases incidence and/or delays of onset
[3]
  incidence and/or onset of GvHD: decreases incidence and/or delays onset
cGVHD; in combination with Ruxolitinib
  incidence and/or onset of GvHD (cGVHD): decreases incidence and/or delays onset
cGVHD; monotherapy
  incidence and/or onset of GvHD (cGVHD): decreases incidence and/or delayes onset

## COc1cc2c(cc1-c1c(C)noc1C)ncc1[nH]c(=O)n([C@H](C)c3ccccn3)c12 [I-BET151]
GVHD
  GVHD severity (clinical score): significantly reduced
  survival rates: improved

## Cn1ccn(-c2ccc(-c3cc(F)cc(-c4cccc(N5CCN(C(C)(C)C)CC5)c4)c3O)cc2Cl)c1=O [Compound I-1, 1-(3″-(4-(tert-butyl)piperazin-1-yl)-3-chloro-5′-fluoro-2′-hydroxy-[1,1′:3′,1″- terphenyl]-4-yl)-3-methyl-1,3-dihydro-2H-imidazol-2-one]
[4]
  MCP secretion from LPS-stimulated human PBMCs: inhibited
[5]
  IL21 T-cell dependent cytokine secretion: inhibited
  IL-17A T-cell dependent cytokine secretion: inhibited
  IL-17F T-cell dependent cytokine secretion: inhibited
[6]; 10 mg/kg, compared with vehicle treatment alone, FIG. 7A
  mRNA levels of IL-17A from the back skin: significantly reduced
[6]; 10 mg/kg, compared with vehicle treatment alone, FIG. 7B
  mRNA levels of IL-22 from the back skin: significantly reduced
[6]; 10 mg/kg, compared with vehicle treatment alone, FIG. 7C
  mRNA levels of IL-23 from the back skin: significantly reduced
[6]; compared to vehicle treatment alone, ELISA, day 7, FIG. 6
  serum IL-17 levels: significantly reduced
[6]; daily dosing po, compared to vehicle treatment, FIG. 5A
  total psoriasis (PASI) score: significantly reduced
[6]; daily dosing po, compared to vehicle treatment, FIG. 5B
  erythema (PASI): significant decreases
[6]; daily dosing po, compared to vehicle treatment, FIG. 5C
  scaling (PASI): significant decreases
[6]; daily dosing po, compared to vehicle treatment, FIG. 5D
  skin thickening (PASI): significant decreases
